Source: patent publication US20160158200A1, “Combinations of Hepatitis C Virus Inhibitors” (priority 2013, published 2016)

System: HCV genotype-1a variant with glutamine 30 changed to glutamate in the NS5A protein
Type: cell-based
Conditions: test compound titrated with BMS-790052 fixed at 200 nM; genotype 1a Q30E replicon
How it was run: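 Synergy was assessed by combining several fixed amounts of an NS5A-targeting compound with a titration of the second compound of interest.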

SMILES | Fold-Synergistic 1a (Q30E)
CC(C)(OCC(F)(F)F)C(=O)N[C@H](c1nc(-c2ccc(-c3ccc(-c4c[nH]c([C@@H](NC(=O)C(C)(C)OCC(F)(F)F)C(C)(C)C)n4)cc3)cc2)c[nH]1)C(C)(C)C [Compound Y-2] | >100 fold
COC(C)(C)C(=O)N[C@H](c1ncc(-c2ccc(-c3ccc(-c4cnc([C@@H](NC(=O)C(C)(C)OC)C(C)C)[nH]4)cc3)cc2)[nH]1)C(C)C [Compound P-69] | >100 fold
Cc1onc(-c2ccccc2)c1C(=O)N[C@H](c1ncc(-c2ccc(-c3ccc(-c4cnc([C@@H](NC(=O)c5c(-c6ccccc6)noc5C)C(C)C)[nH]4)cc3)cc2)[nH]1)C(C)C [Compound S-85] | >100 fold
CC(C)(C)[C@H](NC(=O)C1CCC(F)(F)CC1)c1nc(-c2ccc(-c3ccc(-c4c[nH]c([C@@H](NC(=O)C5CCC(F)(F)CC5)C(C)(C)C)n4)cc3)cc2)c[nH]1 [Compound N-47] | >100 fold
CC(C)[C@H](NC(=O)C12CCC(C1)C(C)(C)C2O)c1nc(-c2ccc(-c3ccc(-c4c[nH]c([C@@H](NC(=O)C56CCC(C5)C(C)(C)C6O)C(C)C)n4)cc3)cc2)c[nH]1 (single isomer, unassigned) [Compound Y-114] | >100 fold
CC(C)(C)C(=O)N[C@H](c1ncc(-c2ccc3cc4cc(-c5cnc([C@@H](NC(=O)C(C)(C)C)C(C)(C)C)[nH]5)ccc4cc3c2)[nH]1)C(C)(C)C [Compound B27] | >100 fold
CC[C@@H](NC(=O)OC)C(=O)N[C@H](c1ncc(-c2ccc(-c3ccc(-c4cnc([C@@H](NC(=O)[C@@H](CC)NC(=O)OC)C(C)C)[nH]4)cc3)cc2)[nH]1)C(C)C [Compound P-104] | >100 fold
CC(C)(C)[C@H](NC(=O)C1(CO)CCC(F)(F)CC1)c1nc(-c2ccc(-c3ccc(-c4c[nH]c([C@@H](NC(=O)C5(CO)CCC(F)(F)CC5)C(C)(C)C)n4)cc3)cc2)c[nH]1 [Compound P-37] | >100 fold
CC(C)(C(=O)N[C@H](c1nc(-c2ccc(-c3ccc(-c4c[nH]c([C@@H](NC(=O)C(C)(C)C(O)c5ccccn5)C(C)(C)C)n4)cc3)cc2)c[nH]1)C(C)(C)C)C(O)c1ccccn1 (single isomer, unassigned) [Compound N-128B] | >100 fold
CC(C)OC(=O)N1C2CCC1(C(=O)N[C@H](c1nc(-c3ccc(-c4ccc(-c5c[nH]c([C@@H](NC(=O)C67CCC(CC6)N7C(=O)OC(C)C)C(C)(C)C)n5)cc4)cc3)c[nH]1)C(C)(C)C)CC2.O=C(O)C(F)(F)F.O=C(O)C(F)(F)F [Compound W-118] | >100 fold
CC(C)(C)[C@H](NC(=O)C1CCC2(CC1)CC2)c1nc(-c2ccc(-c3ccc(-c4c[nH]c([C@@H](NC(=O)C5CCC6(CC5)CC6)C(C)(C)C)n4)cc3)cc2)c[nH]1 (stereo partly shown) [Compound N-123] | >100 fold
Cc1cc(-c2ccc(-c3c[nH]c([C@@H](NC(=O)c4c(F)cccc4Cl)C(C)C)n3)cc2)ccc1-c1c[nH]c([C@@H](NC(=O)c2c(F)cccc2Cl)C(C)C)n1.O=C(O)C(F)(F)F [Compound N-81] | >100 fold
CC(C)CC(=O)NC(C)(C)c1ncc(-c2ccc(-c3ccc(-c4cnc(C(C)(C)NC(=O)CC(C)C)[nH]4)cc3)cc2)[nH]1.O=C(O)C(F)(F)F.O=C(O)C(F)(F)F [Compound N-26] | <10 fold
CC(C)[C@H](NC(=O)c1cncnc1)c1ncc(-c2ccc(-c3ccc(-c4cnc([C@@H](NC(=O)c5cncnc5)C(C)C)[nH]4)cc3)cc2)[nH]1 [Compound S-61] | >10 fold
CC(C)(C)OC(=O)N1CC(F)(F)CC1(C)C(=O)N[C@H](c1nc(-c2ccc(-c3ccc(-c4c[nH]c([C@@H](NC(=O)C5(C)CC(F)(F)CN5C(=O)OC(C)(C)C)C(C)(C)C)n4)cc3)cc2)c[nH]1)C(C)(C)C (single isomer, unassigned) [Compound W-77] | >100 fold
CC(C)(C)[C@H](NC(=O)C(C)(C)C1(O)CCCCC1)c1nc(-c2ccc(-c3ccc(-c4c[nH]c([C@@H](NC(=O)C(C)(C)C5(O)CCCCC5)C(C)(C)C)n4)cc3)cc2)c[nH]1 [Compound P-160] | >100 fold
COC(C)(C)C(=O)N[C@H](c1nc(-c2ccc(-c3ccc(-c4c[nH]c([C@@H](NC(=O)C(C)(C)OC)C(C)(C)C)n4)c(F)c3)cc2)c[nH]1)C(C)(C)C.O=C(O)C(F)(F)F [Compound N-94] | >100 fold
CC1(C(NC(=O)C(C)(C)C(O)C2(C)CC2)c2nc(-c3ccc(-c4ccc(-c5c[nH]c(C(NC(=O)C(C)(C)C(O)C6(C)CC6)C6(C)CC6)n5)cc4)cc3)c[nH]2)CC1 (mixture of isomers) [Compound N-156] | >100 fold
CC1([C@H](NC(=O)C(=O)N2CCCCCC2)c2nc(-c3ccc(-c4ccc(-c5c[nH]c([C@@H](NC(=O)C(=O)N6CCCCCC6)C6(C)CC6)n5)cc4)cc3)c[nH]2)CC1 [Compound W-57] | >100 fold
COC1(C(=O)C(=O)N[C@H](c2ncc(-c3ccc(-c4ccc(-c5cnc([C@@H](NC(=O)C(=O)C6(OC)CC6)C(C)C)[nH]5)cc4)cc3)[nH]2)C(C)C)CC1 [Compound P-123] | >100 fold

SMILES | Fold-Synergistic 1a (Q30E)
CC(C)(C)[C@H](NC(=O)C1(NC(=O)C(F)(F)F)CCCCC1)c1nc(-c2ccc(-c3ccc(-c4c[nH]c([C@@H](NC(=O)C5(NC(=O)C(F)(F)F)CCCCC5)C(C)(C)C)n4)cc3)cc2)c[nH]1.O=C(O)C(F)(F)F.O=C(O)C(F)(F)F [Compound W-269] | >100 fold
CC(C)[C@H](NC(=O)C1CC(F)(F)C1)c1ncc(-c2ccc(-c3ccc(-c4cnc([C@@H](NC(=O)C5CC(F)(F)C5)C(C)C)[nH]4)cc3)cc2)[nH]1 [Compound P-83] | >100 fold
C#CCOC(=O)N[C@@H](C(=O)N[C@H](c1ncc(-c2ccc(-c3ccc(-c4cnc([C@@H](NC(=O)[C@H](NC(=O)OCC#C)C(C)C)C(C)C)[nH]4)cc3)cc2)[nH]1)C(C)C)C(C)C [Compound S-252] | >100 fold
COC(=O)N(C)C1(C(=O)N[C@H](c2nc(-c3ccc(-c4ccc(-c5c[nH]c([C@@H](NC(=O)C6(N(C)C(=O)OC)CC6)C6CC6)n5)cc4)cc3)c[nH]2)C2CC2)CC1 [Compound L-34] | >100 fold
CC(C)(C)[C@H](NC(=O)[C@@H]1CCC(=O)N1)c1nc(-c2ccc(-c3ccc(-c4c[nH]c([C@@H](NC(=O)[C@@H]5CCC(=O)N5)C(C)(C)C)n4)cc3)cc2)c[nH]1.O=C(O)C(F)(F)F.O=C(O)C(F)(F)F [Compound L-10] | >10 fold
CC(C)[C@H](NC(=O)C(C)(C)OCC(F)F)c1nc(-c2ccc(-c3ccc(-c4c[nH]c([C@@H](NC(=O)C(C)(C)OCC(F)F)C(C)C)n4)c(F)c3)cc2)c[nH]1.O=C(O)C(F)(F)F [Compound N-91] | >100 fold
CC(C)C(NC(=O)C1CC1c1ccccc1)c1ncc(-c2ccc(-c3ccc(-c4cnc(C(NC(=O)C5CC5c5ccccc5)C(C)C)[nH]4)cc3)cc2)[nH]1 (stereo not shown) [Compound S-21] | >100 fold
CC1([C@H](NC(=O)C2(CO)CC(F)(F)C2)c2nc(-c3ccc(-c4ccc(-c5c[nH]c([C@@H](NC(=O)C6(CO)CC(F)(F)C6)C6(C)CC6)n5)cc4)cc3)c[nH]2)CC1 [Compound N-155] | >100 fold
CC(C)(C)[C@H](NC(=O)C1CCCCC1CO)c1nc(-c2ccc(-c3ccc(-c4c[nH]c([C@@H](NC(=O)C5CCCCC5CO)C(C)(C)C)n4)cc3)cc2)c[nH]1 (single isomer, unassigned) [Compound L-141a] | >100 fold
C[C@@H]1CCN(C(=O)C(=O)N(C2CC2)C2CC2)C1c1nc(-c2ccc(-c3ccc(-c4c[nH]c(C5[C@H](C)CCN5C(=O)C(=O)N(C5CC5)C5CC5)n4)cc3)cc2)c[nH]1 (stereo partly shown) [Compound W-241] | >10 fold
COc1cc2ccccc2c(C(=O)N[C@H](c2ncc(-c3ccc(-c4ccc(-c5cnc([C@@H](NC(=O)c6nc(OC)cc7ccccc67)C(C)C)[nH]5)cc4)cc3)[nH]2)C(C)C)n1 [Compound Y-19] | >100 fold
CC(C)(C)C(=O)N1CCC(C)(C)C1c1nc(-c2ccc(-c3ccc(-c4c[nH]c(C5N(C(=O)C(C)(C)C)CCC5(C)C)n4)cc3)cc2)c[nH]1 (stereo not shown) [Compound W-219] | >10 fold
CC(C)(C)[C@H](NC(=O)C1CC2(C1)CC(F)(F)C2)c1nc(-c2ccc(-c3ccc(-c4c[nH]c([C@@H](NC(=O)C5CC6(C5)CC(F)(F)C6)C(C)(C)C)n4)cc3)cc2)c[nH]1 [Compound P-46] | >100 fold
CC(C)[C@H](NC(=O)[C@@]1(C)CCC(F)(F)CO1)c1nc(-c2ccc(-c3ccc(-c4c[nH]c([C@@H](NC(=O)[C@@]5(C)CCC(F)(F)CO5)C(C)C)n4)c(F)c3)cc2)c[nH]1 [Compound N-132] | >100 fold
CC(C)(C)[C@H](NC(=O)C1CCC(F)(F)CC1)c1ncc(C#CC#Cc2cnc([C@@H](NC(=O)C3CCC(F)(F)CC3)C(C)(C)C)[nH]2)[nH]1 [Compound B66] | >10 fold
CC(C)[C@H](NC(=O)c1ccccc1N(C)C)c1ncc(-c2ccc(-c3ccc(-c4cnc([C@@H](NC(=O)c5ccccc5N(C)C)C(C)C)[nH]4)cc3)cc2)[nH]1 [Compound S-91] | >100 fold
CC(C)(C)[C@H](NC(=O)c1ccccc1F)c1nc(-c2ccc(-c3ccc(-c4c[nH]c([C@@H](NC(=O)c5ccccc5F)C(C)(C)C)n4)c(F)c3)cc2)c[nH]1.O=C(O)C(F)(F)F [Compound N-95] | >100 fold
CC(C)(C)[C@H](NC(=O)C12CCC(F)(CC1)CC2)c1nc(-c2ccc(-c3ccc(-c4c[nH]c([C@@H](NC(=O)C56CCC(F)(CC5)CC6)C(C)(C)C)n4)cc3)cc2)c[nH]1 [Compound P-40] | >100 fold
CC(C)[C@H](NC(=O)c1ccno1)c1ncc(-c2ccc(-c3ccc(-c4cnc([C@@H](NC(=O)c5ccno5)C(C)C)[nH]4)cc3)cc2)[nH]1 [Compound S-100] | >100 fold
CC(C)(C)[C@H](NC(=O)C(C)(O)C1(C)CC1)c1nc(-c2ccc(-c3ccc(-c4c[nH]c([C@@H](NC(=O)C(C)(O)C5(C)CC5)C(C)(C)C)n4)cc3)cc2)c[nH]1 (stereo partly drawn) [Compound L-93b] | >100 fold
